According to article PMC12767106, “In Situ Assembly of Transformable Monopeptide on Activated Neutrophils Attenuates NETs‐Induced Hepatocellular Carcinoma Metastasis by Disrupting NE Nuclear Translocation” (Advanced Science, 2025):

Experiments:
[1] = Particle diameter by DLS and TEM; type: physicochemical; conditions: 20 µM NPs in H2O:DMSO 99:1, before interaction with NE
Text: Submitted to Advanced Science
We obtained hepatocellular carcinoma (TCGA-LIHC) transcriptomic data from the Cancer Genome Atlas (TCGA) database (https://portal.gdc.cancer.gov/), quantified as transcripts per million (TPM). Tumor samples with complete clinical annotations (overall survival (OS), age, stage, etc.) were retained for further analysis.
Another HCC gene expression profile under the accession number E-TABM-36, containing 44 samples with available survival prognosis information, was obtained from the EBI Array database (https://www.ebi.ac.uk/arrayexpress/) as a validation set. […]
after being further diluted with DMSO (995, 795, 595, 395, 195, 95, 15, and 0 μL). To confirm the generation of NPs, measurements were made of the ultraviolet-visible (UV-vis) absorbance (UV-2600i, Japan) at approximately 410 nm and the fluorescence spectra (Cary 5000, Malaysia) at approximately 635 nm of solutions with different water contents. […]
temperature. […] In addition, the variation of fluorescence emission spectra of PpIX by […]
(§1) Pyrene molecules were employed as an indicator to determine the critical aggregation concentration (CAC) of nanoparticles by comparing the fluorescence of their third and first emissive peaks. […] The fluorescence spectra of pyrene (excitation, 335 nm) in different NPs dilutions were recorded. […]

NE protein = target: T1, NE protein (Homo sapiens, UniProt P08246); assay: Transformation kinetics by PpIX fluorescence after addition of NE protein; type: physicochemical; conditions: 24 h incubation, NE protein/peptide ligand about 1/1000, emission about 635 nm
T1 construct: purchased AkrivisBio MA-0156
T1 sequence (P08246 30-267): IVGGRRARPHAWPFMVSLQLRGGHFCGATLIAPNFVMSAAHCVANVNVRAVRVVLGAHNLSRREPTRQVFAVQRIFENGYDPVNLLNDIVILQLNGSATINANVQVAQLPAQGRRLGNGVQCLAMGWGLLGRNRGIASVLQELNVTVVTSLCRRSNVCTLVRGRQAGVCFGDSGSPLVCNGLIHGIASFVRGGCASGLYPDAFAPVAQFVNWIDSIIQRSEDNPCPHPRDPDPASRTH
Description: Submitted to Advanced Science temperature. Following the incubation, 10 µL of the solution was added to a copper mesh at 0 and 24 h. Filter paper was used to remove any extra droplets after an overnight stay. The samples were then stained for five minutes with uranyl acetate and then rinsed for one minute with water (10 µL). Finally, dried samples were observed by TEM (Talos 120C, Thermo Fisher Scientific, USA). DLS (Zetasizer Nano ZS, UK) was used to assess the solution for hydrodynamic size and zeta potential at 0 and 24 h following the incubation. Then, the nanofiber structure at 0 h and 24 h after incubation of FTP-NPs was examined with Circular Dichroism (CD) Spectra (Chirascan, UM, Britain). In addition, the variation of fluorescence emission spectra of PpIX by […]
transformation of FTP-NPs.
as §1, with “recorded. The fluorescence intensity ratio (I3/I1) of the third and first emissive peaks was measured for CAC calculation.” for “recorded.”

activated neutrophils = assay: Recognition of activated versus resting neutrophils, flow cytometry of PpIX; type: cell-based, mouse; conditions: 50 µM, 1 h, neutrophils activated with PMA 100 nM, n = 3

Substance	diameter [1]	fluorescence intensity of PpIX after addition of NE protein (NE protein)	PpIX fluorescence of activated neutrophils relative to resting neutrophils (activated neutrophils)
PpIX-GFFVLK-EAIPMSIPPEVK [FTP-NPs]	24.27±4.50 nm and ≈ 25 nm	78.3%	about 2.8 times
PpIX-GGGAAK-EAIPMSIPPEVK [NFTP-NPs, nanoparticles of the non-fibrillar transformable control peptide NFTP]	26.13±3.23 nm		
